The first experiment deals with T1, P2Y12 receptor (Homo sapiens, UniProt Q9H244).
T1 construct: expressed in transfected cells; host or cells: CHO cells (membrane preparation)
T1 sequence (Q9H244 whole entry): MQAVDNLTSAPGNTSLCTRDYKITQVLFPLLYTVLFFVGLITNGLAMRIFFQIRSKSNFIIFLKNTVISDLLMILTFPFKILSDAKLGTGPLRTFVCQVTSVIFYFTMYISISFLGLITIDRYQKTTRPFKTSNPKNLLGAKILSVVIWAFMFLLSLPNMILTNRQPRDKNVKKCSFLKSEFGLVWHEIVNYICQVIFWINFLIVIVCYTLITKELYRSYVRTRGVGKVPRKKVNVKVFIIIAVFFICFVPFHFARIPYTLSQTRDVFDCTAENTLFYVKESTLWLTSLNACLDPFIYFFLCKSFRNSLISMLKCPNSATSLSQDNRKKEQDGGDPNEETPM
The experiment in a line: Functional inhibition of 2-Me-S-ADP induced P2Y12 signalling (35S-GTPγS binding, cell membranes). It is filed as biochemical. The note with it: 35S-GTPγS assay, membranes, EC80 concentration of 2-methyl-thio-adenosine diphosphate, 30° C. for 45 min; read-out: GTPγS (IC50 μM). The method, boiled down: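 Membranes (5 μg) from P2Y12-transfected CHO cells in pH 7.4 HEPES buffer with 10 μM GDP and saponin were stimulated with an EC80 of 2-methyl-thio-ADP plus compound and ^35S-GTPγS for 45 min at 30° C. Filter-retained ^35S-GTPγS was counted, normalised between agonist and no-agonist activity, and IC50 taken from a four-parameter fit.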
In general terms: GTPγS resists hydrolysis and so accumulates on activated G proteins.
As to `CC1CCC(CS(=O)(=O)NC(=O)C2CCN(c3nc(CN4CCCC4=O)c(C(=O)OC(C)C)cc3C#N)CC2)CC1` (stereo not shown) [Example 54, Isopropyl 5-cyano-6-[4-({[(4-methylcyclohexyl)methyl]sulfonyl}carbamoyl)piperidin-1-yl]-2-[(2-oxopyrrolidin-1-yl)methyl]nicotinate], the concentration for half-maximal inhibition (IC50) stood at 0.104 µM.
On the same count and under the same terms, under `CCOC(=O)c1cc(C#N)c(N2CC(C(=O)NS(=O)(=O)Cc3ccccc3)C2)nc1CN1CCCC1=O` [Example 90, Ethyl 6-{3-[(benzylsulfonyl)carbamoyl]azetidin-1-yl}-5-cyano-2-[(2-oxopyrrolidin-1-yl)methyl]nicotinate] stands 0.019 µM; under `CCOC(=O)c1cc(C#N)c(N2CC(C(=O)NS(=O)(=O)Cc3ccccc3)C2)nc1CN=[N+]=[N-]` [Example 9, Ethyl 2-(azidomethyl)-6-{3-[(benzylsulfonyl)carbamoyl]azetidin-1-yl}-5-cyanonicotinate], 0.069 µM; under `CCOC(=O)c1cc(C#N)c(N2CCC(C(=O)NS(=O)(=O)Nc3ccc(F)cc3)CC2)nc1CN1CCCC1=O` [Example 77, Ethyl 5-cyano-6-[4-({[(4-fluorophenyl)amino]sulfonyl}carbamoyl)piperidin-1-yl]-2-[(2-oxopyrrolidin-1-yl)methyl]nicotinate], 0.017 µM.
The same measure, in the same setting: under `CCOC(=O)c1cc(C#N)c(N2CCC(C(=O)N(CC(=O)O)S(=O)(=O)Cc3ccccc3)CC2)nc1C` [Example 1, N-(benzylsulfonyl)-N-({1-[3-cyano-5-(ethoxycarbonyl)-6-methylpyridin-2-yl]piperidin-4-yl}carbonyl)glycine] stands 0.093 µM; under `CCOC(=O)c1cc(C#N)c(N2CCC(C(=O)NS(=O)(=O)Cc3ccccc3)CC2)nc1CS(C)(=O)=O` [Example 12, Ethyl 6-{4-[(benzylsulfonyl)carbamoyl]piperidin-1-yl}-5-cyano-2-[(methylsulfonyl)methyl]nicotinate], 0.129 µM; under `CCOC(=O)c1cc(Cl)c(N2CCC(C(=O)NS(=O)(=O)CC3CCCCC3)CC2)nc1CN1CCCC1=O` [Example 94, Ethyl 5-chloro-6-(4-{[(cyclohexylmethyl)sulfonyl]carbamoyl}piperidin-1-yl)-2-[(2-oxopyrrolidin-1-yl)methyl]nicotinate], 0.194 µM.
Same read-out and setting: the same measure for `CCOC(=O)c1cc(C#N)c(N2CCC(C(=O)NS(=O)(=O)CC3CCCCC3)CC2)nc1CN1CCCC1=O` [Example 65, Ethyl 5-cyano-6-(4-{[(cyclohexylmethyl)sulfonyl]carbamoyl}piperidin-1-yl)-2-[(2-oxopyrrolidin-1-yl)methyl]nicotinate]: 0.021 µM; for `CCOC(=O)c1cc(C#N)c(N2CCC(C(=O)NS(=O)(=O)Cc3ccc([Si](C)(C)C)cc3)CC2)nc1CN1CCCCC1=O` [Example 102, Ethyl 5-cyano-2-[(2-oxopiperidin-1-yl)methyl]-6-[4-({[4-(trimethylsilyl)benzyl]sulfonyl}carbamoyl)piperidin-1-yl]nicotinate]: 0.934 µM; for `CCOC(=O)c1cc(C#N)c(N2CCC(C(=O)NS(=O)(=O)Cc3ccccc3)CC2)nc1CSCCNC(C)=O` [Example 29, Ethyl 2-{[(2-acetamidoethyl)thio]methyl}-6-{4-[(benzylsulfonyl)carbamoyl]piperidin-1-yl}-5-cyanonicotinate]: 0.033 µM.
Consider `CCOC(=O)CCCc1nc(N2CCC(C(=O)NS(=O)(=O)Cc3ccccc3)CC2)c(C#N)cc1C(=O)OCC` [Example 106, Ethyl 6-{4-[(benzylsulfonyl)carbamoyl]piperidin-1-yl}-5-cyano-2-(4-ethoxy-4-oxobutyl)nicotinate], for which the IC50 came to 0.066 µM.
Same read-out and setting: the same measure for `CCOC(=O)CSc1nc(N2CCC(C(=O)NS(=O)(=O)Cc3ccccc3)CC2)c(C#N)cc1C(=O)OCC` [Example 126, Ethyl 6-{4-[(benzylsulfonyl)carbamoyl]piperidin-1-yl}-5-cyano-2-[(2-ethoxy-2-oxoethyl)thio]nicotinate]: 0.011 µM; for `CCOC(=O)c1cc(Cl)c(N2CCC(C(=O)NS(=O)(=O)Cc3ccccc3)CC2)nc1SCCNC(C)=O` [Example 105, Ethyl 2-[(2-acetamidoethyl)thio]-6-{4-[(benzylsulfonyl)carbamoyl]piperidin-1-yl}-5-chloronicotinate]: 0.048 µM.
Consider `CCOC(=O)c1cc(C#N)c(N2CCC(C(=O)NS(=O)(=O)Cc3ccccc3)CC2)nc1OC(C)=O` [Example 2, Ethyl 2-acetoxy-6-{4-[(benzylsulfonyl)carbamoyl]piperidin-1-yl}-5-cyanonicotinate], for which the IC50 was 0.024 µM.
On the same count and under the same terms, under `CCOC(=O)c1cc(C#N)c(N2CCC(C(=O)NS(=O)(=O)N(C)c3ccc(F)cc3)CC2)nc1CN1CCCC1=O` [Example 76, Ethyl 5-cyano-6-[4-({[(4-fluorophenyl)(methyl)amino]sulfonyl}carbamoyl)piperidin-1-yl]-2-[(2-oxopyrrolidin-1-yl)methyl]nicotinate] stands 0.0073 µM; under `CCOC(=O)c1cc(C#N)c(N2CCC(C(=O)NS(=O)(=O)Cc3ccc(C(C)C)cc3)CC2)nc1CN1CCCCC1=O` [Example 69, Ethyl 5-cyano-6-(4-{[(4-isopropylbenzyl)sulfonyl]carbamoyl}piperidin-1-yl)-2-[(2-oxopiperidin-1-yl)methyl]nicotinate], 0.082 µM; under `CCOC(=O)c1cc(C#N)c(N2CC(C(=O)NS(=O)(=O)Cc3ccccc3)C2)nc1CN(C)C` [Example 6, Ethyl 6-{3-[(benzylsulfonyl)carbamoyl]azetidin-1-yl}-5-cyano-2-[(dimethylamino)methyl]nicotinate], 1.07 µM.
Same read-out and setting: the same measure for `CCOC(=O)c1cc(C#N)c(N2CCC(C(=O)NS(=O)(=O)Cc3ccccc3)CC2)nc1OCCCC(C)=O` [Example 121, Ethyl 6-{4-[(benzylsulfonyl)carbamoyl]piperidin-1-yl}-5-cyano-2-[(4-oxopentyl)oxy]nicotinate]: 0.017 µM.
On the same count and under the same terms, under `CCOC(=O)c1cc(C#N)c(N2CCC(C(=O)NS(=O)(=O)Cc3ccccc3)CC2)nc1O[C@@H](C)C(=O)OCC` [Example 120, Ethyl 6-{4-[(benzylsulfonyl)carbamoyl]piperidin-1-yl}-5-cyano-2-[(1S)-2-ethoxy-1-methyl-2-oxoethoxy]nicotinate] stands 0.019 µM; under `CCOC(=O)c1cc(C#N)c(N2CCC(C(=O)NS(=O)(=O)Cc3ccccc3)CC2)nc1CN1CCCC1=O` [Example 33, Ethyl 6-{4-[(benzylsulfonyl)carbamoyl]piperidin-1-yl}-5-cyano-2-[(2-oxopyrrolidin-1-yl)methyl]nicotinate], 0.0097 µM.
Consider `CCOC(=O)c1cc(C#N)c(N2CCC(C(=O)NS(=O)(=O)Cc3ccccc3)CC2)nc1CN1CCCC1` [Example 3, Ethyl 6-{4-[(benzylsulfonyl)carbamoyl]piperidin-1-yl}-5-cyano-2-(pyrrolidin-1-ylmethyl)nicotinate], for which the concentration for half-maximal inhibition (IC50) came out at 0.545 µM.
The same measure, in the same setting: under `CCOC(=O)c1cc(C#N)c(N2CCC(C(=O)NS(=O)(=O)Cc3ccccc3)CC2)nc1OCC1CCO1` (stereo not shown) [Example 23, Ethyl 6-{4-[(benzylsulfonyl)carbamoyl]piperidin-1-yl}-5-cyano-2-(oxetan-2-ylmethoxy)nicotinate] stands 0.048 µM; under `CCOC(=O)c1cc(C#N)c(N2CCC(C(=O)NS(=O)(=O)Cc3ccccc3)CC2)nc1OCC(N)=O` [Example 22, Ethyl 2-(2-amino-2-oxoethoxy)-6-{4-[(benzylsulfonyl)carbamoyl]piperidin-1-yl}-5-cyanonicotinate], 0.072 µM.
The same measure, in the same setting: the same measure for `CCOC(=O)c1cc(C#N)c(N2CCC(C(=O)NS(=O)(=O)CC3CCCCC3)CC2)nc1CN1CCCCC1=O` [Example 61, Ethyl 5-cyano-6-(4-{[(cyclohexylmethyl)sulfonyl]carbamoyl}piperidin-1-yl)-2-[(2-oxopiperidin-1-yl)methyl]nicotinate]: 0.061 µM.
Consider `CCOC(=O)c1cc(C#N)c(N2CCC(C(=O)NS(=O)(=O)Cc3ccccc3)CC2)nc1OCCNC(C)=O` [Example 20, Ethyl 2-(2-acetamidoethoxy)-6-{4-[(benzylsulfonyl)carbamoyl]piperidin-1-yl}-5-cyanonicotinate], for which the IC50 is 0.038 µM.
For the compound `CCOC(=O)c1cc(C#N)c(N2CCC(C(=O)NS(=O)(=O)Cc3ccccc3)CC2)nc1OCCC#N` [Example 17, Ethyl 6-{4-[(benzylsulfonyl)carbamoyl]piperidin-1-yl}-5-cyano-2-(2-cyanoethoxy)nicotinate], the IC50 was 0.027 µM.
The same measure, in the same setting: under `CCOC(=O)c1cc(C#N)c(N2CCC(C(=O)NS(=O)(=O)Cc3ccccc3)CC2)nc1CSc1nccn1C` [Example 118, Ethyl 6-{4-[(benzylsulfonyl)carbamoyl]piperidin-1-yl}-5-cyano-2-{[(1-methyl-1H-imidazol-2-yl)thio]methyl}nicotinate] stands 0.052 µM.
Same read-out and setting: the same measure for `CCOC(=O)c1cc(C#N)c(N2CCC(C(=O)NS(=O)(=O)Cc3ccccc3)CC2)nc1SCC(=O)N1CCC1` [Example 124, Ethyl 2-[(2-azetidin-1-yl-2-oxoethyl)thio]-6-{4-[(benzylsulfonyl)carbamoyl]piperidin-1-yl}-5-cyanonicotinate]: 0.013 µM.
Same read-out and setting: the same measure for `CCOC(=O)c1cc(C#N)c(N2CCC(C(=O)NS(=O)(=O)Cc3ccc(F)cc3F)CC2)nc1CN1CCCC1=O` [Example 38, Ethyl 5-cyano-6-(4-{[(2,4-difluorobenzyl)sulfonyl]carbamoyl}piperidin-1-yl)-2-[(2-oxopyrrolidin-1-yl)methyl]nicotinate]: 0.0033 µM; for `CCOC(=O)c1cc(C#N)c(N2CCC(C(=O)NS(=O)(=O)Cc3ccc(C(F)(F)F)cc3)CC2)nc1CN1CCCCC1=O` [Example 59, Ethyl 5-cyano-2-[(2-oxopiperidin-1-yl)methyl]-6-[4-({[4-(trifluoromethyl)benzyl]sulfonyl}carbamoyl)piperidin-1-yl]nicotinate]: 0.029 µM.

Staying with this experiment, now noted: functional inhibition of 2-Me-S-ADP induced P2Y12 signalling; membranes from P2Y12 transfected CHO-cells; EC80 concentration of agonist; read-out: IC50.
`CCOC(=O)c1cc(C#N)c(N2CCC(C(=O)NS(=O)(=O)Cc3ccccc3)CC2)nc1CS(C)(=O)=O` [Example 12, Ethyl 6-{4-[(benzylsulfonyl)carbamoyl]piperidin-1-yl}-5-cyano-2-[(methylsulfonyl)methyl]nicotinate]: the IC50 stood at 0.13 µM.

Broadly, the IC50 is the concentration at which inhibition is half-maximal.

The values are drawn from US20080200448A1, “New Pyridine Analogues VIII 518” (ASTRAZENECA AB, priority 2007, published 2008).
